Results reported in US20260097037A1, “FUSED RING COMPOUND HAVING GLP-1 RECEPTOR AGONIST EFFECT” (Shionogi & Co., Ltd., priority 2022, published 2026).

Target: T1, Human GLP-1 receptor stably expressing cells (hGLP-1R/CHO-K1 cells) (Homo sapiens, UniProt P43220)
T1 construct: expressed in transfected cells
Assay: Measurement of GLP-1 receptor agonist activity (cAMP assay)
Assay type: cell-based
Conditions: for Emax: CHO-K1, maximum effect, cAMP with 2 nM human GLP-1 (7-36) = 100%, DMSO only = 0%, read-out: Emax; for EC50: increase in cAMP concentration in hGLP-1R/CHO-K1 cells, 37° C. 1 hour
Procedure: Test Example 1: Measurement of GLP-1 Receptor Agonist Activity
Human GLP-1 receptor stably expressing cells (hGLP-1R/CHO-K1 cells) are cultured in an a-MEM medium (Sigma) containing 10% FBS (Hyclone), 2% GlutaMAX (Gibco), 1% G418 (Nacalai Tesque), and 1% Penicillin-Streptomycin Mixed Solution (Sigma) at 37° C. under 5% CO2 conditions, and recovered by treating a 10 fold diluted 5.0 g/1-trypsin/5.3 mmol/1-EDTA solution (Nacalai Tesque) and cryopreserved.
A DMSO solution containing the compound of the present invention or human GLP-1 (7-36) (Phoenix Pharmaceuticals) is dispensed into a 384-well microplate (Greiner) at 62.5 nL/well, and in addition, 400 μM Forskolin (Nacalai Tesque) is dispensed therein at 7.5 nL/well. Subsequently, the frozen GLP-1 R/CHO-K1 cells are thawed in a thermostatic bath at 37° C., suspended in HBSS buffer (GIBCO) containing 0.1% BSA (Sigma), 20 mM HEPES, 0.1 mM IBMX (Sigma), and 0.2 mM RO20-1724 (Calbiochem) at 2×10^4 cells/mL, and the cell suspension is added at 6 μL/well. The solution was incubated at 37° C. for 1 hour and intracellular cAMP concentration is measured using cAMP Gs dynamic kit (Cisbio) according to the protocol attached to the product. Specifically, a cAMP-d2/Anti-cAMP-Cryptate (1/1) mixture solution is added in a total amount of 6 μL/well, and is incubated at room temperature for 1 hour, and then, time-resolved fluorescence is measured using PHERAstar (BMG Labtech).
Assuming that the cAMP concentration when human GLP-1 (7-36) is dispensed to a final concentration of 2 nM is 100% and the cAMP concentration when only DMSO is dispensed is 0%, the 50% effective concentration (EC50) and the maximum effect (Emax) of the compound of the present invention are calculated using an increase in the cAMP concentration as an index, using TIBCO Spotfire (TIBCO Software). The dilution concentration or the dilution solvent are changed as necessary.
The compounds of the present invention were tested essentially as described above.

T1 sequence (P43220 24-463): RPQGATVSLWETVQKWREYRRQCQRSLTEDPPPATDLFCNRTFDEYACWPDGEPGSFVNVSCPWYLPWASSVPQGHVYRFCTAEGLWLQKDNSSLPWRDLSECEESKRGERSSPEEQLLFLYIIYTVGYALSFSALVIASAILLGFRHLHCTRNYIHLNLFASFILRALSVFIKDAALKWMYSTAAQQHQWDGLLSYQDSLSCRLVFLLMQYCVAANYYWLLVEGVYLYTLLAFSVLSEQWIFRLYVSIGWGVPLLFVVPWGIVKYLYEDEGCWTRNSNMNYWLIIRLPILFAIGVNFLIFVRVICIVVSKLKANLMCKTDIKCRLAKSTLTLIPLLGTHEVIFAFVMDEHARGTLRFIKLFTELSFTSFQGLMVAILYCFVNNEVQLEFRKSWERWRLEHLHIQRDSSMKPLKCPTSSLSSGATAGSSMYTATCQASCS

SMILES | Emax | EC50
C[C@H]1c2c(cc(C(F)(F)F)c3c2O[C@@](C)(c2ccc(Cl)cc2F)O3)CCN1Cc1nc2ccc(C(=O)O)cc2n1C[C@@H]1CCO1 [Compound I-047] | 146% | 903 pM
C[C@H]1c2nc(OCc3ncc(Cl)s3)c(C(F)(F)F)cc2CCN1Cc1nc2ccc(C(=O)O)cc2n1C[C@@H]1CCO1 [Compound I-048] | 93.7% | 3310 pM
C[C@H]1c2nc(OCc3ccc(Cl)cc3F)c(C(F)(F)F)cc2CCN1Cc1nc2sc(C(=O)O)cc2n1C[C@@H]1CCO1 [Compound I-049] | 112% | 307 pM
C[C@H]1c2nc(OCc3nc4ccccc4s3)c(C(F)(F)F)cc2CCN1Cc1nc2ccc(C(=O)O)cc2n1C[C@@H]1CCO1 [Compound I-050] | 97% | 638 pM
C[C@H]1c2nc(OCc3ccc(F)cc3)c(C(F)F)cc2CCN1Cc1nc2ccc(C(=O)O)cc2n1C[C@@H]1CCO1 [Compound I-051] | 118% | 1020 pM
C[C@H]1c2nc(OCc3ccc(Cl)cc3)c(C(F)F)cc2CCN1Cc1nc2ccc(C(=O)O)cc2n1C[C@@H]1CCO1 [Compound I-052] | 115% | 252 pM
Cc1ccc(COc2nc3c(cc2C(F)F)CCN(Cc2nc4ccc(C(=O)O)cc4n2C[C@@H]2CCO2)[C@H]3C)cc1 [Compound I-053] | 123% | 417 pM
C[C@H]1c2nc(OCc3ccccc3Cl)c(C(F)F)cc2CCN1Cc1nc2ccc(C(=O)O)cc2n1C[C@@H]1CCO1 [Compound I-055] | 97% | 902 pM
C[C@H]1c2nc(OCc3ccc(F)cc3F)c(C(F)F)cc2CCN1Cc1nc2ccc(C(=O)O)cc2n1C[C@@H]1CCO1 [Compound I-056] | 108% | 354 pM
C[C@H]1c2nc(OCc3ccc(Cl)cc3Cl)c(C(F)F)cc2CCN1Cc1nc2ccc(C(=O)O)cc2n1C[C@@H]1CCO1 [Compound I-057] | 86.7% | 315 pM
C[C@H]1c2nc(OCc3ccc(Cl)cn3)c(C(F)F)cc2CCN1Cc1nc2ccc(C(=O)O)cc2n1C[C@@H]1CCO1 [Compound I-058] | 92.7% | 924 pM
C[C@H]1c2nc(OCc3ccc(OC(F)F)cc3F)c(C(F)F)cc2CCN1Cc1nc2ccc(C(=O)O)cc2n1C[C@@H]1CCO1 [Compound I-059] | 104% | 1280 pM
C[C@H]1c2nc(OCc3c(F)cc(F)cc3F)c(C(F)F)cc2CCN1Cc1nc2ccc(C(=O)O)cc2n1C[C@@H]1CCO1 [Compound I-061] | 101% | 295 pM
C[C@H]1c2nc(OCc3cc(F)c(Cl)cc3F)c(C(F)F)cc2CCN1Cc1nc2ccc(C(=O)O)cc2n1C[C@@H]1CCO1 [Compound I-062] | 99.3% | 215 pM
C[C@H]1c2nc(OCc3ccc(C#N)cc3F)c(C(F)F)cc2CCN1Cc1nc2ccc(C(=O)O)cc2n1C[C@@H]1CCO1 [Compound I-063] | 92.3% | 195 pM
C[C@H]1c2nc(OCc3ccc(Cl)cc3F)c(C(F)(F)F)cc2CCN1Cc1nc2c(-c3ccn(C)n3)cc(C(=O)O)cc2n1C[C@@H]1CCO1 [Compound I-064] | 102% | 345 pM
COc1cc(C(=O)O)cc2c1nc(CN1CCc3cc(Cl)c(OCc4ccccc4Cl)nc3[C@@H]1C)n2C[C@@H]1CCO1 [Compound I-068] | 112% | 194 pM
O=C(O)c1ccc2nc(CC3CCc4cc(C(F)(F)F)c(OCc5ccc(Cl)cc5F)cc4C3)n(C[C@@H]3CCO3)c2c1 (stereo partly shown) [Compound I-077] | 92.3% | 7350 pM
CC1c2nc(OCc3ccc(Cl)cc3F)ncc2CCN1Cc1nc2ccc(C(=O)O)cc2n1C[C@@H]1CCO1 (stereo partly shown) [Compound I-078] | 96% | 14800 pM
C[C@@H]1c2nc(OCc3ccc(Cl)cc3F)ncc2CCN1Cc1nc2ccc(C(=O)O)cc2n1C[C@@H]1CCO1 [Compound I-079] | 75.7% | 886000 pM
C[C@H]1c2nc(OCc3ccc(Cl)cc3F)ncc2CCN1Cc1nc2ccc(C(=O)O)cc2n1C[C@@H]1CCO1 [Compound I-080] | 88.3% | 9310 pM
C[C@H]1c2nc(OCc3ccc(F)cc3)c(Cl)cc2CCN1Cc1nc2c(F)cc(C(=O)O)cc2n1C[C@@H]1CCO1 [Compound I-087] | 103% | 248 pM
C[C@H]1c2c(cc(Cl)c3c2OC(C)(c2ccc(Cl)cc2F)O3)CCN1Cc1nc2ccc(C(=O)O)cc2n1C[C@@H]1CCO1 (stereo partly shown) [Compound I-090] | 98% | 2050 pM
C[C@H]1c2c(ccc3c2OC(C)(c2ccc(Cl)cc2F)O3)CCN1Cc1nc2ccc(C(=O)O)cc2n1C[C@@H]1CCO1 (stereo partly shown) [Compound I-091] | 91.7% | 2640 pM

These reach a lower EC50. Values come first.

Emax | EC50 | SMILES
96.7% | 179 pM | C[C@H]1c2nc(OCc3ccc(Cl)cn3)c(Cl)cc2CCN1Cc1nc2c(F)cc(C(=O)O)cc2n1C[C@@H]1CCO1 [Compound I-081]
105% | 147 pM | C[C@H]1c2nc(OCc3c(F)cc(Cl)cc3F)c(C(F)F)cc2CCN1Cc1nc2ccc(C(=O)O)cc2n1C[C@@H]1CCO1 [Compound I-060]
116% | 122 pM | C[C@H]1c2nc(OCc3ccc(F)cc3F)c(Cl)cc2CCN1Cc1nc2c(F)cc(C(=O)O)cc2n1C[C@@H]1CCO1 [Compound I-083]
121% | 96.3 pM | COc1cc(Cl)ccc1COc1nc2c(cc1C(F)F)CCN(Cc1nc3ccc(C(=O)O)cc3n1C[C@@H]1CCO1)[C@H]2C [Compound I-054]
103% | 86.5 pM | C[C@H]1c2nc(OCc3c(F)cc(Cl)cc3F)c(Cl)cc2CCN1Cc1nc2c(F)cc(C(=O)O)cc2n1C[C@@H]1CCO1 [Compound I-088]
100% | 84.9 pM | C[C@H]1c2nc(OCc3ccc(Cl)cc3)c(Cl)cc2CCN1Cc1nc2c(F)cc(C(=O)O)cc2n1C[C@@H]1CCO1 [Compound I-082]
104% | 80.9 pM | COc1cc(C(=O)O)cc2c1nc(CN1CCc3cc(Cl)c(OCc4ccc(Cl)cn4)nc3[C@@H]1C)n2C[C@@H]1CCO1 [Compound I-065]
106% | 73.9 pM | C[C@H]1c2nc(OCc3ccc(Cl)cc3F)c(Cl)cc2CCN1Cc1nc2c(F)cc(C(=O)O)cc2n1C[C@@H]1CCO1 [Compound I-089]
101% | 68.5 pM | C[C@H]1c2nc(OCc3ccc(C#N)cc3F)c(Cl)cc2CCN1Cc1nc2c(F)cc(C(=O)O)cc2n1C[C@@H]1CCO1 [Compound I-086]
110% | 68.3 pM | COc1cc(C(=O)O)cc2c1nc(CN1CCc3cc(Cl)c(OCc4ccc(OC(F)F)cc4F)nc3[C@@H]1C)n2C[C@@H]1CCO1 [Compound I-071]
101% | 65.8 pM | COc1cc(C(=O)O)cc2c1nc(CN1CCc3cc(Cl)c(OCc4ccc(F)cc4)nc3[C@@H]1C)n2C[C@@H]1CCO1 [Compound I-073]
98.3% | 60.5 pM | COc1cc(C(=O)O)cc2c1nc(CN1CCc3cc(Cl)c(OCc4ccc(C)cc4)nc3[C@@H]1C)n2C[C@@H]1CCO1 [Compound I-067]
94.7% | 58.7 pM | C[C@H]1c2nc(OCc3ccc(Cl)cc3Cl)c(Cl)cc2CCN1Cc1nc2c(F)cc(C(=O)O)cc2n1C[C@@H]1CCO1 [Compound I-084]
118% | 49.3 pM | COc1cc(C(=O)O)cc2c1nc(CN1CCc3cc(Cl)c(OCc4c(F)cc(F)cc4F)nc3[C@@H]1C)n2C[C@@H]1CCO1 [Compound I-075]
109% | 42.2 pM | COc1cc(C(=O)O)cc2c1nc(CN1CCc3cc(Cl)c(OCc4ccc(F)cc4F)nc3[C@@H]1C)n2C[C@@H]1CCO1 [Compound I-069]
106% | 37.5 pM | COc1cc(C(=O)O)cc2c1nc(CN1CCc3cc(Cl)c(OCc4ccc(Cl)cc4)nc3[C@@H]1C)n2C[C@@H]1CCO1 [Compound I-066]
106% | 27.4 pM | COc1cc(C(=O)O)cc2c1nc(CN1CCc3cc(Cl)c(OCc4cc(F)c(Cl)cc4F)nc3[C@@H]1C)n2C[C@@H]1CCO1 [Compound I-072]
104% | 23.2 pM | COc1cc(C(=O)O)cc2c1nc(CN1CCc3cc(Cl)c(OCc4c(F)cc(Cl)cc4F)cc3[C@@H]1C)n2C[C@@H]1CCO1 [Compound I-074]
122% | 20.8 pM | COc1cc(C(=O)O)cc2c1nc(CN1CCc3cc(Cl)c(OCc4ccc(Cl)cc4F)nc3[C@@H]1C)n2C[C@@H]1CCO1 [Compound I-076]
105% | 18.7 pM | COc1cc(C(=O)O)cc2c1nc(CN1CCc3cc(Cl)c(OCc4ccc(Cl)cc4Cl)nc3[C@@H]1C)n2C[C@@H]1CCO1 [Compound I-070]
